Measured values published in publication PMC11003925, “Antimicrobial activity and properties of de novo design of short synthetic lipopeptides” (Folia Microbiologica, 2024).
In brackets after ≈: the same amount, converted by molar mass. Residues, ends and D or L forms follow the SMILES beside them. *: point of attachment. Lithocholoyl = C[C@H](CCC(=O)*)[C@H]1CC[C@H]2[C@@H]3CC[C@@H]4C[C@H](O)CC[C@]4(C)[C@H]3CC[C@]12C

Tests used:
DNA = settings: ref Ball et al. [2004]; cited from earlier work
From the text: The majority of the known antimicrobial peptides have been isolated from natural sources. Recently genomic and proteomic methods have also been applied for peptide identification. Knowledge obtained by both classical and novel methods can be used to design the chemical synthesis of new peptide compounds with biological properties. The sequence analysis of natural antimicrobial peptides led to a template, with which it is possible to generate active AMPs (Tossi et al. [1997]; Giangaspero et al. [2001]; Tossi et al. [2000]). We designed three scrambled hexapeptides, one according to this templat ...

Staph. aureus = assay: Transmission electron microscopy of treated bacteria; type: cell-based, Staphylococcus aureus; settings: 1 to 4 h incubation; media with (Mueller–Hinton broth 2) and without nutrients (potassium phosphate buffer)
Experimental: Pictures of damaged bacterial cells were obtained by transmission electron microscopy after 1 to 4 h of incubation. Cells of the Gram-positive bacterial strains were not stained. A JEOL JEM-1010 transmission electron microscope (JEOL, Tokyo, Japan) equipped with a MegaView III CCD camera was used for visualization, and evaluation was performed with the program for image analysis AnalySIS software v. 2.0 (Soft Imaging Systems). The samples were plated on a carbon-coated electron microscopic grid and observed with an accelerating voltage of 80 kV.

B. subtilis DBM 3006 = type: cell-based, Bacillus subtilis
Experimental: (§1) A Bioscreen C automated microbiology growth curve analysis system (Growth Curves, Piscataway, NJ, USA) was used for the quantitative determination of antimicrobial activity (minimal inhibitory concentration, MIC) of PAL/LCA-peptides. Optical density was measured with a wide bandpass filter (wavelength range 420–580 nm) at regular intervals and temperatures. This assay was performed in a special microtiter plate (10 × 10 wells) that allowed the simultaneous testing of a large number of samples against several microorganisms. The total testing volume was 100 µL, obtained by mixing 10 µL of microbial culture with OD600 equal to 0.1 with growth medium and a solution of the tested compounds. The positive controls were vancomycin and tetracycline for Bacillus subtilis (100 µg/mL) for Gram-positive bacteria, kanamycin, and tetracycline for Acinetobacter baumannii (100 µg/mL) for Gram-negative bacteria, and clotrimazole or amphotericin (100 µg/mL) for fungi. The maximal concentration of tested lipoproteins was 1 mg/mL. A pure growth medium was used as the negative control. The measurement period was 25 h. The lowest concentration with a 100% inhibition effect for 24 h of incubation was chosen as the MIC. The antibacterial activity of each compound was expressed as the minimum inhibitory concentration MIC (MIC is the lowest concentration of the compound needed to inhibit the growth of bacterial cells) and IC50 (IC50 is the concentration of the compound needed to inhibit the growth of bacterial cells by 50%).

M. luteus DBM 3053 = type: cell-based, Micrococcus luteus
Experimental: as §1

C. tropicalis DBM 2166 = type: cell-based, Candida tropicalis
Experimental: as §1

E. faecalis DBM 3075 = type: cell-based; settings: DBM 3075, 25 h
Experimental: as §1

E. coli DBM 3001 = type: cell-based; settings: DBM 3001, 25 h
Experimental: as §1

HEK293T = assay: Cytotoxicity assay (xCELLigence impedance); type: cell-based, human; settings: 24 h exposure
Experimental: (§2) Experiments were carried out using an xCELLigence RTCA DP Instrument (Roche Diagnostics GmbH, Mannheim, Germany) which was placed into an incubator (37 °C and 5% CO2). Cell proliferation and cytotoxicity experiments were performed using modified 16-well plates (E-plate, Roche Diagnostics GmbH, Mannheim, Germany). Microelectrodes were attached to the bottom of the wells for the impedance-based detection of attachment, spreading, and proliferation of the cells (Stoddart [2011]). This system monitors cellular events in real time without the incorporation of labels by measuring electrical impedance across an interdigitated microelectrode integrated into the bottom of this special tissue culture plate. This impedance measurement improves upon conventional endpoint assays and provides quantitative information about the biological status of the cells, including cell number, adhesion, viability, and morphology. Ninety microliters of cultivation medium was used for the blank sample, and subsequently, 100 µL of HepG2 or HEK293T cell suspension (7 × 10^5 cells/mL) was added and placed into the incubator (37 °C, 95% humidity, 5% CO2). […] Chrysophsin-3 at a concentration of 100 µg/mL was used as a positive control and solvent (deionized water) as a negative control. Subsequent incubation was performed for at least an additional 24 h. The result of the measurement was viability curves. After the measurement, percentages of tissue culture growth inhibition were calculated for all the tested substances, as follows: %inhibition=(1-(ΔϕCIsample)/(ΔϕCIcontrol))·100
(§3) Δ∅CIsample … the difference between the first and last average CI (cell index) values of the tissue culture in the presence of the tested sample.
(§4) Δ∅CIcontrol … the difference between the first and last average CI values of the tissue culture itself.

HepG2 = assay: Cytotoxicity assay (xCELLigence impedance); type: cell-based, human; settings: 24 h exposure
Experimental: as §2, §3, §4

A. baumannii DBM 3183 = assay: microbe, parasite or virus in culture; type: cell-based, Acinetobacter baumannii; settings: DBM 3183, 25 h
Experimental: as §1

[1] = tested on: plasmid pBluescript II KS-; assay: DNA binding assay (gel retardation); settings: 50 ng DNA, 1 h room temperature, 1% agarose gel
Experimental: This assay was performed as described by Park et al. ([1998]), with a few modifications. […] The reaction mixture was incubated at room temperature for 1 h. Subsequently, 4 µL of native loading buffer (10% Ficol, 10 mM Tris–HCl (pH 7.5), 50 mM EDTA, 0.25% bromophenol blue) was added. An aliquot was applied to 1% agarose gel electrophoresis in 0.5xTris borate-EDTA buffer. Circular plasmid DNA was isolated from (Luria–Bertani medium with AMPI in final concentration 100 µg/mL) bacterial strain E. coli DH5α / pBluescriptII KS- that had been grown overnight, and linearization was performed overnight by enzymatic reaction using restriction endonuclease EcoRV at 37 °C. The evaluation was performed by visualizing the DNA with the intercalation dye Midori Green Advanced DNA Stain under UV light. Reduced electrophoretic mobility compared to the control is considered to be evidence of peptide binding to DNA.
According to the previous results, we decided to clarify one of the possible molecular interaction mechanisms, the ability of the studied lipopeptides to bind microbial plasmid DNA. Based on the assumption that pore formation is only one of the influencing factors, which arose from previous results, the effect on one of the possible intracellular targets, DNA, was determined. This determination was carried out on isolated plasmid DNA, specifically on two plasmids, pGreen 0029 and pBluescript II KS- in circular and linearized form.

Staph. aureus DBM 3002 = type: cell-based, Staphylococcus aureus
Experimental: as §1

Staph. aureus MRSA1 = type: cell-based, Staphylococcus aureus
Experimental: as §1

Ps. aeruginosa DBM 3081 = type: cell-based, Pseudomonas aeruginosa; settings: 25 h
Experimental: as §1

## C[C@H](CCC(=O)O)[C@H]1CC[C@H]2[C@@H]3CC[C@@H]4C[C@H](O)CC[C@]4(C)[C@H]3CC[C@]12C [LCA, lithocholic acid]
DNA
  concentration range in which mutagenic factor: 200 to 400 µM

## CC(C)C[C@H](NC(=O)CC[C@@H](C)[C@H]1CC[C@H]2[C@@H]3CC[C@@H]4C[C@H](O)CC[C@]4(C)[C@H]3CC[C@]12C)C(=O)N[C@H](C(=O)N[C@@H](CCCCN)C(=O)NCC(=O)N[C@@H](C)C(=O)N[C@@H](CCCNC(=N)N)C(N)=O)C(C)C [SHP-2.3, LCA-LVKGAR-NH2] (Lithocholoyl-LVKGAR-NH2)
Staph. aureus
  morphological effect on bacterial cells (TEM): damaging cellular envelopes
B. subtilis DBM 3006; DBM 3006, 24 h
  MIC: 6.9 µg/mL (≈ 6.9 µM)
B. subtilis DBM 3006; DBM 3006, 25 h
  IC50: 20.0 µg/mL (≈ 20 µM)
M. luteus DBM 3053; DBM 3053, 24 h
  MIC: 1.6 µg/mL (≈ 1.6 µM)
M. luteus DBM 3053; DBM 3053, 25 h
  IC50: 5.0 µg/mL (≈ 5 µM)
C. tropicalis DBM 2166; DBM 2166, 24 h
  MIC: 56.4 µg/mL (≈ 56.4 µM)
C. tropicalis DBM 2166; DBM 2166, 25 h
  IC50: 75.0 µg/mL (≈ 75 µM)
E. faecalis DBM 3075
  IC50: N / > 100.0 µg/mL
E. coli DBM 3001
  IC50: N / > 100.0 µg/mL
HEK293T; c 50 µg/mL
  % inhibition: 25.6 ± 3.8%
HEK293T; c 100 µg/mL
  % inhibition: 42.2 ± 6.3%
HEK293T; c 200 µg/mL
  % inhibition: 85.1 ± 12.8%
HepG2; c 50 µg/mL
  % inhibition: 7.4 ± 1.1%
HepG2; c 100 µg/mL
  % inhibition: 0.0 ± 2.2%
A. baumannii DBM 3183
  IC50: N / > 100.0 µg/mL
[1]; circular plasmid
  weight ratio lipopeptide:DNA influencing electrophoretic mobility: 10.0
[1]; linearized plasmid
  weight ratio lipopeptide:DNA influencing electrophoretic mobility: 10.0
Staph. aureus DBM 3002; 24 h
  MIC: 31.9 µg/mL (≈ 31.9 µM)
Staph. aureus DBM 3002; 25 h
  IC50: 50.0 µg/mL (≈ 50 µM)
Staph. aureus MRSA1; 24 h
  MIC: 25.1 µg/mL (≈ 25.1 µM)
Staph. aureus MRSA1; 25 h
  IC50: 50.0 µg/mL (≈ 50 µM)
Ps. aeruginosa DBM 3081
  IC50: N / > 100.0 µg/mL
